Results published in ChEMBL document CHEMBL1131559, “Novel quinolone derivatives as potent antibacterials” (1998).
In brackets after ≈: the same amount, converted by molar mass.

Experiments:
Staphylococcus aureus [1] = assay: Compound was evaluated for in vitro antibacterial activity against gram positive organism Staphylococcus aureus strain ATCC 29213; assay type: functional
Staphylococcus aureus [2] = assay: Compound was evaluated for in vitro antibacterial activity against gram positive organism Staphylococcus aureus strain ATCC 33592; assay type: functional
Klebsiella pneumoniae [3] = assay: Compound was evaluated for in vitro antibacterial activity against gram negative organism Klebsiella pneumoniae strain DRCC 132; assay type: functional
Pseudomonas aeruginosa [4] = assay: Compound was evaluated for in vitro antibacterial activity against gram negative organism Pseudomonas aeruginosa strain DRCC 137; assay type: functional
Klebsiella pneumoniae [5] = assay: Compound was evaluated for in vitro antibacterial activity against gram negative organism Klebsiella pneumoniae strain ATCC 10031; assay type: functional
[6] = system: Staphylococcus epidermidis; assay: Compound was evaluated for in vitro antibacterial activity against gram positive organism Staphylococcus epidermidis strain ATCC 12228; assay type: functional
Escherichia coli [7] = assay: Compound was evaluated for in vitro antibacterial activity against gram negative organism Escherichia coli strain ATCC 35218; assay type: functional
Escherichia coli [8] = assay: Compound was evaluated for in vitro antibacterial activity against gram negative organism Escherichia coli strain DRCC 133; assay type: functional
Salmonella typhimurium = assay: Compound was evaluated for in vitro antibacterial activity against gram negative organism Salmonella Typhimurium MTCC 98; assay type: functional, Salmonella enterica subsp. enterica serovar Typhimurium; conditions: Salmonella enterica
Staphylococcus aureus [9] = assay: Compound was evaluated for in vitro antibacterial activity against gram positive organism Staphylococcus aureus strain ATCC 33591; assay type: functional
Enterococcus faecalis [10] = assay: Compound was evaluated for in vitro antibacterial activity against gram positive organism Streptococcus faecalis strain ATCC 29212; assay type: functional
Pseudomonas aeruginosa [11] = assay: Compound was evaluated for in vitro antibacterial activity against gram negative organism Pseudomonas aeruginosa strains ATCC 27853; assay type: functional
Escherichia coli [12] = assay: Compound was evaluated for in vitro antibacterial activity against gram negative organism Escherichia coli strain DRCC 091; assay type: functional
[13] = system: Salmonella enterica subsp. enterica serovar Abony; assay: Compound was evaluated for in vitro antibacterial activity against gram negative organism Salmonella abony strain NCIM 2257; assay type: functional
Klebsiella pneumoniae [14] = assay: Compound was evaluated for in vitro antibacterial activity against gram negative organism Klebsiella pneumoniae strain DRCC 136; assay type: functional
Escherichia coli [15] = assay: Compound was evaluated for in vitro antibacterial activity against gram negative organism Escherichia coli strain DRCC 134; assay type: functional
Pseudomonas aeruginosa [16] = assay: Compound was evaluated for in vitro antibacterial activity against gram negative organism Pseudomonas aeruginosa strain MTCC 1688; assay type: functional
Staphylococcus aureus [17] = assay: Compound was evaluated for in vitro antibacterial activity against gram positive organism Staphylococcus aureus strain ATCC 6538P; assay type: functional
Salmonella typhi = assay: Compound was evaluated for in vitro antibacterial activity against gram negative organism Salmonella typhi strain MTCC 531; assay type: functional, Salmonella enterica subsp. enterica serovar Typhi; conditions: Salmonella enterica
Pseudomonas fluorescens [18] = assay: Compound was evaluated for in vitro antibacterial activity against gram negative organism Pseudomonas fluorescence strain DRCC 008; assay type: functional
Enterococcus faecalis [19] = assay: Compound was evaluated for in vitro antibacterial activity against gram positive organism Streptococcus faecalis strain ATCC 49384; assay type: functional
Staphylococcus aureus [20] = assay: Compound was evaluated for in vitro antibacterial activity against gram positive organism Staphylococcus aureus strain MTCC 737; assay type: functional
Streptococcus pyogenes = assay: Compound was evaluated for in vitro antibacterial activity against gram positive organism Streptococcus pyogenes strain DRCC 092; assay type: functional
Escherichia coli [21] = assay: Compound was evaluated for in vitro antibacterial activity against gram negative organism Escherichia coli strain ATCC 25922; assay type: functional
Pseudomonas aeruginosa [22] = assay: Compound was evaluated for in vitro antibacterial activity against gram negative organism Pseudomonas aeruginosa strain DRCC 131; assay type: functional
Enterococcus faecalis [23] = assay: Compound was evaluated for in vitro antibacterial activity against gram positive organism Streptococcus faecalis strain ATCC 51299; assay type: functional
Pseudomonas aeruginosa [24] = assay: Compound was evaluated for in vitro antibacterial activity against gram negative organism Pseudomonas aeruginosa strain DRCC 135; assay type: functional
Enterococcus faecalis [25] = assay: Compound was evaluated for in vitro antibacterial activity against gram positive organism Streptococcus faecalis strainATCC 49384; assay type: functional; conditions: ATCC 49384
Pseudomonas aeruginosa [26] = assay: Compound was evaluated for in vitro antibacterial activity against gram negative organism Pseudomonas aeruginosa strainsATCC 27853; assay type: functional; conditions: ATCC 27853
Staphylococcus aureus [27] = assay: Compound was evaluated for in vitro antibacterial activity against gram positive organism Staphylococcus aureus strainATCC 6538P; assay type: functional; conditions: ATCC 6538P
Pseudomonas fluorescens [28] = assay: Compound was evaluated for in vitro antibacterial activity against gram negative organism Pseudomonas fluorescence strain NCIMB 10586; assay type: functional

Row | Structure (SMILES) | MIC (Staphylococcus aureus [1]) [µg/mL] | MIC (Staphylococcus aureus [2]) [µg/mL] | MIC (Klebsiella pneumoniae [3]) [µg/mL] | MIC (Pseudomonas aeruginosa [4]) [µg/mL] | MIC (Klebsiella pneumoniae [5]) [µg/mL] | MIC [6] [µg/mL] | MIC (Escherichia coli [8]) [µg/mL] | MIC (Salmonella typhimurium) [µg/mL] | MIC (Staphylococcus aureus [9]) [µg/mL] | MIC (Enterococcus faecalis [10]) [µg/mL] | MIC (Escherichia coli [12]) [µg/mL] | MIC [13] [µg/mL] | MIC (Klebsiella pneumoniae [14]) [µg/mL] | MIC (Escherichia coli [15]) [µg/mL] | MIC (Pseudomonas aeruginosa [16]) [µg/mL] | MIC (Salmonella typhi) [µg/mL] | MIC (Pseudomonas fluorescens [18]) [µg/mL] | MIC (Staphylococcus aureus [20]) [µg/mL] | MIC (Pseudomonas aeruginosa [22]) [µg/mL] | MIC (Pseudomonas aeruginosa [24]) [µg/mL] | also measured
1 | CN[C@@H]1CN(c2cc3c(cc2F)c(=O)c(C(=O)O)cn3-c2ccccc2F)C[C@H]1NC.O=C(O)C(F)(F)F | 4 | 4 | > 8 | > 8 | 0.06 | 2 | > 8 | 1 | 1 | 4 | > 8 | 1 | 2 | > 8 | 4 | 4 | > 8 | 4 | 0.5 | > 8 | MIC (Escherichia coli [7]): 0.5 µg/mL; MIC (Pseudomonas aeruginosa [11]): 4 µg/mL; MIC (Staphylococcus aureus [17]): 0.5 µg/mL; MIC (Enterococcus faecalis [19]): 4 µg/mL; MIC (Streptococcus pyogenes): 0.03 µg/mL; MIC (Escherichia coli [21]): 1 µg/mL; MIC (Enterococcus faecalis [23]): 2 µg/mL
2 | N[C@@H]1CN(c2cc3c(cc2F)c(=O)c(C(=O)O)cn3C2CC2)C[C@H]1N.O=C(O)C(F)(F)F | 2 | 8 | > 8 | > 8 | 0.125 | 2 | > 8 | > 8 | 2 | 2 | > 8 | 2 | 4 | > 8 | 0.5 | 1 | 1 | 2 | > 8 | > 8 | MIC (Enterococcus faecalis [25]): 4 µg/mL; MIC (Escherichia coli [7]): 1 µg/mL; MIC (Pseudomonas aeruginosa [26]): 4 µg/mL; MIC (Staphylococcus aureus [27]): 2 µg/mL; MIC (Streptococcus pyogenes): 1 µg/mL; MIC (Escherichia coli [21]): 0.25 µg/mL; MIC (Enterococcus faecalis [23]): 1 µg/mL
3 | CCn1cc(C(=O)O)c(=O)c2cc(F)c(N3C[C@@H](N)[C@H](N)C3)c(F)c21.Cl | 2 | 4 | > 8 | > 8 | 0.125 | 2 | > 8 | 0.5 | 2 | 4 | > 8 | 8 | > 8 | > 8 | 1 | 1 | 4 | 2 | > 8 | > 8 | MIC (Escherichia coli [7]): 1 µg/mL; MIC (Pseudomonas aeruginosa [11]): > 8 µg/mL; MIC (Staphylococcus aureus [17]): 2 µg/mL; MIC (Enterococcus faecalis [19]): 4 µg/mL; MIC (Streptococcus pyogenes): 2 µg/mL; MIC (Escherichia coli [21]): 0.5 µg/mL; MIC (Enterococcus faecalis [23]): 2 µg/mL
4 | CN[C@@H]1CN(c2c(F)c(N)c3c(=O)c(C(=O)O)cn(C4CC4)c3c2F)C[C@H]1NC.Cl | 0.25 | 0.25 | > 8 | > 8 | 0.06 | 1 | > 8 | 0.125 | 0.25 | 1 | > 8 | 0.25 | 0.5 | > 8 | 0.5 | 0.25 | > 8 | 0.25 | 1 | > 8 | MIC (Escherichia coli [7]): 0.5 µg/mL; MIC (Pseudomonas aeruginosa [11]): 4 µg/mL; MIC (Staphylococcus aureus [17]): 0.5 µg/mL; MIC (Enterococcus faecalis [19]): 1 µg/mL; MIC (Streptococcus pyogenes): 0.03 µg/mL; MIC (Escherichia coli [21]): 0.06 µg/mL; MIC (Enterococcus faecalis [23]): 0.25 µg/mL
5 | CN[C@@H]1CN(c2cc3c(cc2F)c(=O)c(C(=O)O)cn3C2CC2)C[C@H]1NC.Cl | 1 | 0.5 | > 8 | > 8 | 0.06 | 0.5 | > 8 | 0.5 | 1 | 2 | > 8 | 1 | 0.5 | > 8 | 2 | 0.5 | > 8 | 1 | 2 | > 8 | MIC (Escherichia coli [7]): 0.25 µg/mL; MIC (Pseudomonas aeruginosa [11]): 4 µg/mL; MIC (Staphylococcus aureus [17]): 0.5 µg/mL; MIC (Enterococcus faecalis [19]): 4 µg/mL; MIC (Streptococcus pyogenes): 0.06 µg/mL; MIC (Escherichia coli [21]): 0.125 µg/mL; MIC (Enterococcus faecalis [23]): 0.25 µg/mL
6 | CN[C@@H]1CN(c2cc3c(cc2F)c(=O)c(C(=O)O)cn3-c2ccc(F)cc2)C[C@H]1NC.Cl | 0.5 | 0.25 | > 8 | 1 | 0.125 | 1 | > 8 | 1 | 1 | 0.5 | > 8 | 0.5 | 0.5 | > 8 | 2 | 0.25 | 2 | 0.5 | 0.25 | > 8 | MIC (Escherichia coli [7]): 1 µg/mL; MIC (Pseudomonas aeruginosa [11]): 4 µg/mL; MIC (Staphylococcus aureus [17]): 0.5 µg/mL; MIC (Enterococcus faecalis [19]): 0.5 µg/mL; MIC (Streptococcus pyogenes): 1 µg/mL; MIC (Escherichia coli [21]): 0.5 µg/mL; MIC (Enterococcus faecalis [23]): 0.25 µg/mL
7 | Cl.N[C@@H]1CN(c2cc3c(cc2F)c(=O)c(C(=O)O)cn3-c2ccc(F)cc2)C[C@H]1N | 1 | 1 | > 8 | > 8 | 1 | 1 | > 8 | 1 | 1 | 2 | > 8 | 4 | > 8 | > 8 | 2 | > 8 | 2 | 1 | 1 | > 8 | MIC (Escherichia coli [7]): 1 µg/mL; MIC (Pseudomonas aeruginosa [11]): 8 µg/mL; MIC (Staphylococcus aureus [17]): 1 µg/mL; MIC (Enterococcus faecalis [19]): 1 µg/mL; MIC (Streptococcus pyogenes): 0.5 µg/mL; MIC (Escherichia coli [21]): 1 µg/mL; MIC (Enterococcus faecalis [23]): 1 µg/mL
8 | CCn1cc(C(=O)O)c(=O)c2cc(F)c(N3C[C@@H](NC)[C@H](NC)C3)c(F)c21.Cl | 4 | 4 | > 8 | 8 | 0.5 | 2 | > 8 | 1 | 1 | 4 | > 8 | 8 | 8 | > 8 | 1 | 1 | 4 | 4 | > 8 | > 8 | MIC (Escherichia coli [7]): 1 µg/mL; MIC (Pseudomonas aeruginosa [11]): 8 µg/mL; MIC (Staphylococcus aureus [17]): 4 µg/mL; MIC (Enterococcus faecalis [19]): 8 µg/mL; MIC (Streptococcus pyogenes): 4 µg/mL; MIC (Escherichia coli [21]): 0.5 µg/mL; MIC (Enterococcus faecalis [23]): 2 µg/mL
9 | O=C(O)c1cn(C2CC2)c2cc(N3CCNCC3)c(F)cc2c1=O [CIPROFLOXACIN] | 2 (≈ 6.04 µM) | 4 (≈ 12.1 µM) | > 8 | – | 0.03 (≈ 0.0905 µM) | 1 (≈ 3.02 µM) | > 8 | 0.25 (≈ 0.754 µM) | 0.25 (≈ 0.754 µM) | 0.125 (≈ 0.377 µM) | > 8 | 1 (≈ 3.02 µM) | 1 (≈ 3.02 µM) | > 8 | 0.06 (≈ 0.181 µM) | 0.25 (≈ 0.754 µM) | 0.5 (≈ 1.51 µM) | 0.25 (≈ 0.754 µM) | > 8 | > 8 | MIC (Staphylococcus aureus [17]): 0.5 µg/mL (≈ 1.51 µM); MIC (Enterococcus faecalis [19]): 4 µg/mL (≈ 12.1 µM); MIC (Pseudomonas fluorescens [28]): > 8 µg/mL
10 | CCn1cc(C(=O)O)c(=O)c2cc(F)c(N3CCNCC3)cc21 [NORFLOXACIN] | 4 (≈ 12.5 µM) | 4 (≈ 12.5 µM) | > 8 | 2 (≈ 6.26 µM) | 0.03 (≈ 0.0939 µM) | 1 (≈ 3.13 µM) | > 8 | 0.5 (≈ 1.57 µM) | 1 (≈ 3.13 µM) | 1 (≈ 3.13 µM) | > 8 | 0.5 (≈ 1.57 µM) | 0.5 (≈ 1.57 µM) | > 8 | 0.125 (≈ 0.391 µM) | 0.25 (≈ 0.783 µM) | 0.25 (≈ 0.783 µM) | 4 (≈ 12.5 µM) | > 8 | > 8 | MIC (Escherichia coli [7]): 0.125 µg/mL (≈ 0.391 µM); MIC (Pseudomonas aeruginosa [11]): 4 µg/mL (≈ 12.5 µM); MIC (Staphylococcus aureus [17]): 1 µg/mL (≈ 3.13 µM); MIC (Enterococcus faecalis [19]): 4 µg/mL (≈ 12.5 µM); MIC (Streptococcus pyogenes): 2 µg/mL (≈ 6.26 µM); MIC (Escherichia coli [21]): 0.03 µg/mL (≈ 0.0939 µM); MIC (Pseudomonas fluorescens [28]): > 8 µg/mL; MIC (Enterococcus faecalis [23]): 2 µg/mL (≈ 6.26 µM)
